Test results as given in ChEMBL document CHEMBL3616395, “Discovery of 4-arylamido 3-methyl isoxazole derivatives as novel FMS kinase inhibitors” (Eur J Med Chem, 2015).
The source made the active and inactive calls.

Legend:
[1] = biological target: Mast/stem cell growth factor receptor Kit (Homo sapiens) (UniProt P10721); experiment: Inhibition of c-Kit (unknown origin) at 10 uM after 40 mins by scintillation counting analysis
[2] = biological target: Receptor-type tyrosine-protein kinase FLT3 (Homo sapiens) (UniProt P36888); experiment: Inhibition of FLT3 (unknown origin) at 10 uM after 40 mins by scintillation counting analysis
[3] = biological target: Vascular endothelial growth factor receptor 2 (Homo sapiens) (UniProt P35968); experiment: Inhibition of VEGFR2 (unknown origin) at 10 uM after 40 mins by scintillation counting analysis
[4] = biological target: Dual specificity mitogen-activated protein kinase kinase 1 (Homo sapiens) (UniProt Q02750); experiment: Inhibition of MEK1 (unknown origin) at 10 uM after 40 mins by scintillation counting analysis
Dual specificity mitogen-activated protein kinase kinase 1 (Homo sapiens), sequence (Q02750 whole entry): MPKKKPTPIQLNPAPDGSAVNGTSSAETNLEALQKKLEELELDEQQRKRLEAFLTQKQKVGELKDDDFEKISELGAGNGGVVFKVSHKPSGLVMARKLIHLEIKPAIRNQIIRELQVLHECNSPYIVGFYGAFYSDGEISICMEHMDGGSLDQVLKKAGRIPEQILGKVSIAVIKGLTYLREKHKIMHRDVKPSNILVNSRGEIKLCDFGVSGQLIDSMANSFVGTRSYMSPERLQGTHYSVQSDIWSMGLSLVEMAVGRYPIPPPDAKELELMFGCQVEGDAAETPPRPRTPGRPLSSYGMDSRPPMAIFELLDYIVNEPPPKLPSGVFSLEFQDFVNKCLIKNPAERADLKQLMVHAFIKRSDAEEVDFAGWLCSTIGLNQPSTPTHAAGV

[5] = biological target: Proto-oncogene tyrosine-protein kinase ROS (Homo sapiens) (UniProt P08922); experiment: Inhibition of ROS1 (unknown origin) at 10 uM after 40 mins by scintillation counting analysis
[6] = biological target: Tyrosine-protein kinase ABL1 (Homo sapiens) (UniProt P00519); experiment: Inhibition of ABL1 (unknown origin) at 10 uM after 40 mins by scintillation counting analysis
Tyrosine-protein kinase ABL1 (Homo sapiens), sequence (P00519 whole entry): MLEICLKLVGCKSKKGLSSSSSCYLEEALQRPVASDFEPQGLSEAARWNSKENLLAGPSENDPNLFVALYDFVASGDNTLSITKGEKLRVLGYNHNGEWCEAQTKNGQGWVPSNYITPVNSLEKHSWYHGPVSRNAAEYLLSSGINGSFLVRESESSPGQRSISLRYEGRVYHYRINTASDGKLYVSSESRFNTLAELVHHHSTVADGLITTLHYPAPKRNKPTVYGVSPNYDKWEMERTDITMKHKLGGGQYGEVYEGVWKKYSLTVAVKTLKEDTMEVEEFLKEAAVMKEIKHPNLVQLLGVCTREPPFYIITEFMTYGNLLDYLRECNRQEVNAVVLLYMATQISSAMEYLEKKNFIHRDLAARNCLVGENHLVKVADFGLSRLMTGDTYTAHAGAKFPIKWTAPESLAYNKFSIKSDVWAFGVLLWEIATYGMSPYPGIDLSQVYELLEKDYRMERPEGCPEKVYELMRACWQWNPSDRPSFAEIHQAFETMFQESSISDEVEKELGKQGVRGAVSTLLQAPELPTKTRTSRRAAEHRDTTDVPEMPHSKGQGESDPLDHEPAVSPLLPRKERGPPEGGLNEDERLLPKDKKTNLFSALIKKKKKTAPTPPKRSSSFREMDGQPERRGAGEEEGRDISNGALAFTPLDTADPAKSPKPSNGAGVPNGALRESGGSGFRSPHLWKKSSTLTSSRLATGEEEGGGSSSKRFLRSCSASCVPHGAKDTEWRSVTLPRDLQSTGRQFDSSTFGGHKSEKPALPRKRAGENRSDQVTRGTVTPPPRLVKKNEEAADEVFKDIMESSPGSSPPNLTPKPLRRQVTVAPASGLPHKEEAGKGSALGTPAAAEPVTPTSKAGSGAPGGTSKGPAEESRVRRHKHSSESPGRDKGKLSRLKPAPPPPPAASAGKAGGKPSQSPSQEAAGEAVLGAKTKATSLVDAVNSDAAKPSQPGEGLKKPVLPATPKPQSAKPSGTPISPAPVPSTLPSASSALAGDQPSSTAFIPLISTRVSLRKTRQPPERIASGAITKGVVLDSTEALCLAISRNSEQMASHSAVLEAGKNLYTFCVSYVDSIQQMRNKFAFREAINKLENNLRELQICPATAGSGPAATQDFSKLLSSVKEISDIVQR

[7] = biological target: Tyrosine-protein kinase HCK (Homo sapiens) (UniProt P08631); experiment: Inhibition of HCK (unknown origin) at 10 uM after 40 mins by scintillation counting analysis
Tyrosine-protein kinase HCK (Homo sapiens), sequence (P08631 2-526 limits assumed): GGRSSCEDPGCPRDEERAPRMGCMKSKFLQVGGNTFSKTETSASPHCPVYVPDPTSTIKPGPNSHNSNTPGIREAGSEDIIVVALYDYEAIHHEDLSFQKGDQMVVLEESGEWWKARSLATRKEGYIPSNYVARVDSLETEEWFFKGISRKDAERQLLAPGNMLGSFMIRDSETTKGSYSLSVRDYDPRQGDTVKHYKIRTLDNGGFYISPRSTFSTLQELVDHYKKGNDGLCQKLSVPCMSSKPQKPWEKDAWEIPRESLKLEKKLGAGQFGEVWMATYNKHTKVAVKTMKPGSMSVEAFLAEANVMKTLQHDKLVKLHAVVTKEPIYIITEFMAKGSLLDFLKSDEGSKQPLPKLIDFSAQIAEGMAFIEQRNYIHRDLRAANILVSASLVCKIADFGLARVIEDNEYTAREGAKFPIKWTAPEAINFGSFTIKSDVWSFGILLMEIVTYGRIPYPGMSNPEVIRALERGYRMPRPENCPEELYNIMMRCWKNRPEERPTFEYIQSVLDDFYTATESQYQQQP

[8] = biological target: Tyrosine-protein kinase Lck (Homo sapiens) (UniProt P06239); experiment: Inhibition of LCK (unknown origin) at 10 uM after 40 mins by scintillation counting analysis
Tyrosine-protein kinase Lck (Homo sapiens), sequence (P06239 2-509 limits assumed): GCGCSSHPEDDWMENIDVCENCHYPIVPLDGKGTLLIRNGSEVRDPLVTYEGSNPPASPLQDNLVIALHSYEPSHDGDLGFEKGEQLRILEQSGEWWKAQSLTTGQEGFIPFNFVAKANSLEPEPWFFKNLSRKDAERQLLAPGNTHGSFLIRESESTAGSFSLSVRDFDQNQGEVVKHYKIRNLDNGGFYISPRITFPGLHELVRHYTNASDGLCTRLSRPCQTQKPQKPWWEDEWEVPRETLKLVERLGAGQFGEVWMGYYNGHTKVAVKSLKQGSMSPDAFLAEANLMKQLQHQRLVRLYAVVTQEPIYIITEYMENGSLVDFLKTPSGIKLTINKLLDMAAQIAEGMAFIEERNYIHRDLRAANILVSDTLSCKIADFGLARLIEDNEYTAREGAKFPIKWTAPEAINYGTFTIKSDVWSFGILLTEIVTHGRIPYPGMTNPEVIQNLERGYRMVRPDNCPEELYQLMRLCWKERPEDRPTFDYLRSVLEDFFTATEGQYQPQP

[9] = biological target: Tyrosine-protein kinase JAK1 (Homo sapiens) (UniProt P23458); experiment: Inhibition of JAK1 (unknown origin) at 10 uM after 40 mins by scintillation counting analysis
Tyrosine-protein kinase JAK1 (Homo sapiens), sequence (P23458 whole entry): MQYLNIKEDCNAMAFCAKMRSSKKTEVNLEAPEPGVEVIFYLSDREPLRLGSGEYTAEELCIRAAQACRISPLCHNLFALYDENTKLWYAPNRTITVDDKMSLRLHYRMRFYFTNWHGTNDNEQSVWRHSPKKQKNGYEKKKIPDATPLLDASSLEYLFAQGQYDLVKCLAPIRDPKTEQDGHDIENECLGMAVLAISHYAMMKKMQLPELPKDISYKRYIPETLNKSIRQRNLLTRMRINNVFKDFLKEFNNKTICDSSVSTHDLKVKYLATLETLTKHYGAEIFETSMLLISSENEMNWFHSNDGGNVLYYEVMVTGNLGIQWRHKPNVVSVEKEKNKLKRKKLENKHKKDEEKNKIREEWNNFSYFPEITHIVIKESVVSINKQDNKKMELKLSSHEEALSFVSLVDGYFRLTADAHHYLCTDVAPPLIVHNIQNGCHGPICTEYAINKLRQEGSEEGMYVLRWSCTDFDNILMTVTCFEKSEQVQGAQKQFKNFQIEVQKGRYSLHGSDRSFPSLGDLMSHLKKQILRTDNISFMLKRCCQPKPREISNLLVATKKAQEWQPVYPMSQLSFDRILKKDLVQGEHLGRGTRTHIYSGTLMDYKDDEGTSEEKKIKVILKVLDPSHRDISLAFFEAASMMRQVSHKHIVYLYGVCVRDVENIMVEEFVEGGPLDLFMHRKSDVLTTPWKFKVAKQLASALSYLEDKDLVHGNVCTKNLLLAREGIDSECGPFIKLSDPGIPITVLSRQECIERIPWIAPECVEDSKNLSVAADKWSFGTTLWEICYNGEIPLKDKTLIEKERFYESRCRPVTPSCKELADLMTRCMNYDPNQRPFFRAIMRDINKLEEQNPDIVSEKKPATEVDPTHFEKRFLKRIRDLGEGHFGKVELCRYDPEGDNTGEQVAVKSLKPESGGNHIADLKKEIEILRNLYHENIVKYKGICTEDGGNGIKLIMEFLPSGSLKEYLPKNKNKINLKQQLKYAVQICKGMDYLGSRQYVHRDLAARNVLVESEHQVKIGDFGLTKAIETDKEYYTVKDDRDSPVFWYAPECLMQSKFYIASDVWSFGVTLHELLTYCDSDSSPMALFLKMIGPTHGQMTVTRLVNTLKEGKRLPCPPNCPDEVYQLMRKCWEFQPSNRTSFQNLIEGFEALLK

[10] = biological target: Angiopoietin-1 receptor (Homo sapiens) (UniProt Q02763); experiment: Inhibition of TIE2 (unknown origin) at 10 uM after 40 mins by scintillation counting analysis
Angiopoietin-1 receptor (Homo sapiens), sequence (Q02763 whole entry): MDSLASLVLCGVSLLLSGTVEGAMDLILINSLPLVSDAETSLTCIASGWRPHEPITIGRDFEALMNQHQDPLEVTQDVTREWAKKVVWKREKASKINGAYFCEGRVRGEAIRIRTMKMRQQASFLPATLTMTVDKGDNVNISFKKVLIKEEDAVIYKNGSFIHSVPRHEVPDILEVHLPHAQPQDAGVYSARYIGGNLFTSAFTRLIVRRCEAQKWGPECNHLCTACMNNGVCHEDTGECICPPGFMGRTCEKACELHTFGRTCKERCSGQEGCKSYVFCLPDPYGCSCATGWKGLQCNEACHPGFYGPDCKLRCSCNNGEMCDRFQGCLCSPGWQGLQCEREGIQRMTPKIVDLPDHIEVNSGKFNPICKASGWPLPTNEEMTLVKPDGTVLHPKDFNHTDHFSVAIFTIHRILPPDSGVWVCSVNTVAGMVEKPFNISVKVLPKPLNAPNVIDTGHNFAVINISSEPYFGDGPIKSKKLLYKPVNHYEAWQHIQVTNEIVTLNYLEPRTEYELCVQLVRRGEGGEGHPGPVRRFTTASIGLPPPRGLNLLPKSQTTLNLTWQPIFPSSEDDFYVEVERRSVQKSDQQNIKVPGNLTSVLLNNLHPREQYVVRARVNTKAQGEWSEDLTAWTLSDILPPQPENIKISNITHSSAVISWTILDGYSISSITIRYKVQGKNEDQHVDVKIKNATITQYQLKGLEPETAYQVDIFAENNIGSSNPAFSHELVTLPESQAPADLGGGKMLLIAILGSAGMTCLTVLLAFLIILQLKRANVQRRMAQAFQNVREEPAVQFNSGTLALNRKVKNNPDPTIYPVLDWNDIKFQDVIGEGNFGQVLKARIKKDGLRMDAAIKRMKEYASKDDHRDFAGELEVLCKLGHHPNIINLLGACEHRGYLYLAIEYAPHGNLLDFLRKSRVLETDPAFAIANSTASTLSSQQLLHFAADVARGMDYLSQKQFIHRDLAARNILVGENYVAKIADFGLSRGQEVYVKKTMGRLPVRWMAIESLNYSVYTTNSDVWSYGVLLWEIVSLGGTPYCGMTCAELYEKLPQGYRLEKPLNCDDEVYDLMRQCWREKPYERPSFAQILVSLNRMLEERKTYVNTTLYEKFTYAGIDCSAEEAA

Measured: inhibition

Cc1ccccc1C(=O)Nc1cnoc1C
inactive: all assays above
